Results published in patent publication US9586896B2, “Nitroxyl donors with improved therapeutic index” (Cardioxyl Pharmaceuticals, Inc., priority 2013, dated 2017).

What was measured:
dogs = assay: 14-day continuous infusion tolerance study of CXL-1020 in dogs; assay type: in vivo
Experimental: During in vivo trials of the nitroxyl donor, CXL-1020 (N-hydroxy-2-methanesulfonylbenzene-1-sulfonamide), a 14-day study was conducted to evaluate tolerance in dogs treated with continuous infusions of CXL-1020 at dose rates of up to 90 μg/kg/min. […] To further investigate this undesirable side-effect, a follow-up 14-day study in dogs was initiated.

healthy volunteers = assay: 24-hour continuous infusion dose escalation study of CXL-1020 in healthy volunteers; assay type: in vivo, humans; conditions: forearm vein infusion
Experimental: To determine whether a local phlebitis would occur in humans upon longer duration dosing, a longer duration study was conducted in healthy volunteers. The longer duration study included a dose escalation study in which cohorts of 10 volunteers were to be sequentially administered a 24-hour continuous infusion of CXL-1020 at the dose rates of 10, 20, and 30 μg/kg/min with a safety assessment between each cohort. Each cohort consisted of 2 placebo and 8 active treatments with a sentinel pair of 1 active and 1 placebo followed by the main group of 1 placebo and 7 active treatments. The infusion was via a percutaneous catheter inserted into a forearm vein. The catheter was switched to the contralateral arm after 12 hours of infusion.

With CS(=O)(=O)c1ccccc1S(=O)(=O)NO [CXL-1020, N-hydroxy-2-methanesulfonylbenzene-1-sulfonamide] the dose rate tolerated (dogs) was 60 µg/kg/min, the “tolerability at 10 μg/kg/min for 24-hours” value (healthy volunteers; 10 μg/kg/min) was “well tolerated” and the “findings at 20 μg/kg/min for 24-hours” value (healthy volunteers; 20 μg/kg/min) was “mild findings (either clinical signs and/or changes in clinical pathology) in all 8 subjects consistent with infusion site phlebitis”.
